Measurements taken from patent US20110224232A1 (Board of Regents, The University of Texas System, priority 2008, published 2011).

Experiments:
[1] = Aerodynamic droplet size characterization, AERONEB Pro nebulizer and eight-stage cascade impactor; format: physicochemical
Experimental: The performance of an inhalable formulation of the invention was evaluated using an AERONEB® Pro nebulizer and a cascade impactor. Aerodynamic droplet size distributions were determined using an adapted USP Apparatus 1 nonviable eight-stage cascade impactor (Thermo-Anderson, Smyrna, Ga.) with a spacer.
Aerodynamic droplet size distributions were determined using a USP Apparatus 1 nonviable eight-stage cascade impactor (Thermo-Anderson, Symrna, Ga.) to quantify total emitted dose (TED) from the nebulizer output, mass median aerodynamic diameter (MMAD), geometric standard deviation (GSD), and percentage droplets with an aerodynamic diameter less than 4.7 micrometer (defined as the percentage fine particle fraction or FPF). The aerodynamic droplet size distribution was conducted as adapted from the guidelines described in USP 30 Section 601: Aerosols, Nasal Sprays, Metered-dose Inhalers, and Dry Powder Inhalers.

Aspergillus fumigatus = assay: Pulmonary fungal burden by real-time quantitative PCR (conidial equivalents) in infected mice; format: in vivo; settings: Day + 8 per table footnote
Experimental: Mice were monitored for an additional 5 days following discontinuation of treatment. Animals that appeared moribund prior to the end of the study were euthanized by halothane and death was recorded as occurring the next day. 12 mice were randomly selected from each group and euthanized on Day +8 for fungal burden analysis while any remaining mice were euthanized on Day +12. 2 additional mice were randomly selected from each group and euthanized on Day +8 and Day +12 for histological analysis
Pulmonary fungal burden was also quantified by real-time quantitative polymerase chain reaction (qPCR) using previously described methods. Briefly, DNA was extracted from […] of lung homogenate with the use of a commercially available kit (DNeasy Tissue Kit, Qiagen, Valencia, Calif.) according to the manufacturer's instructions. DNA samples were analyzed in duplicate with the use of the ABI PRISM 7300 sequence-detection system (Applied Biosystems, Foster City, Calif.) with primers and dual-labeled fluorescent hybridization probes specific for the A. fumigatus 1,3-β-glucan synthase (FKS) gene (GenBank accession number U79728). The threshold cycle (Ct) of each sample was interpolated from a six-point standard curve generated by spiking naive mouse lungs with known amounts of conidia (102 to 107). An internal standard was amplified in separate reactions to correct for differences in DNA recovery. The resulting data was expressed as conidial equivalents (CE).
Statistical analyses were conducted as follows. Survival was plotted by Kaplan-Meier analysis, and differences in median survival and percent survival between prophylaxis groups were analyzed by the log-rank test and chi-square test, respectively, using Prism version 4 software (GraphPad, San Diego, Calif.). Differences in fungal burden endpoints (CFU/g and CE) were assessed for significance by analysis of variance with Tukey's post-test for multiple comparisons. A p-value of ≦0.05 was considered statistically significant for all comparisons.

## CC(c1ncncc1F)C(O)(Cn1cncn1)c1ccc(F)cc1F (centres unmarked) [Voriconazole, 2-(2,4-difluorophenyl)-3-(5-fluoropyrimidin-4-yl)-1-(1H-1,2,4-triazol-1-yl)butan-2-ol]
[1]; Average Results of Test 1 and 2, 6.25 mg/mL
  FPF (fine particle fraction): > 70%
[1]; all dosing during the survival study
  estimated TED, based on measured residual volumes: 25.44 mg
Aspergillus fumigatus
  C - Conidial Equivalents Determined by qPCR, Mean: 4.56 log10 conidial equivalents
  C - Conidial Equivalents Determined by qPCR, Median: 4.59 log10 conidial equivalents
  C - Conidial Equivalents Determined by qPCR, Range: (3.77-5.32) log10 conidial equivalents
Aspergillus fumigatus; normalized for wet lung weight
  D - Conidial Equivalents per Gram of Lung Tissue Determined by Qpcr, Mean: 5.19 log10 conidial equivalents per
  D - Conidial Equivalents per Gram of Lung Tissue Determined by Qpcr, Median: 5.24 log10 conidial equivalents per
  D - Conidial Equivalents per Gram of Lung Tissue Determined by Qpcr, Range: (4.45-5.98) log10 conidial equivalents per
